# Test results from patent US8053553B2, “Targeting host proteinases as a therapeutic strategy against viral and bacterial pathogens” (Socpra Sciences Sante Et Humaines, priority 2007, dated 2011).
# Non-standard residues stand in square brackets, D forms with d. Residues, ends and D or L forms follow the SMILES beside them. Sar = CNCC(=O)O
# Molecular target: T1, furin (Homo sapiens, UniProt P09958)
# T1 construct: made in house; host or cells: Drosophila S2 cells (Invitrogen expression system)
# Test: biochemical
# Conditions: furin, Pyr-RTKR-AMC substrate; alanine scanning mutagenesis of the H5 furin cleavage sequence (Table 2); read-out: Ki
# T1 sequence (P09958 108-794 limits assumed): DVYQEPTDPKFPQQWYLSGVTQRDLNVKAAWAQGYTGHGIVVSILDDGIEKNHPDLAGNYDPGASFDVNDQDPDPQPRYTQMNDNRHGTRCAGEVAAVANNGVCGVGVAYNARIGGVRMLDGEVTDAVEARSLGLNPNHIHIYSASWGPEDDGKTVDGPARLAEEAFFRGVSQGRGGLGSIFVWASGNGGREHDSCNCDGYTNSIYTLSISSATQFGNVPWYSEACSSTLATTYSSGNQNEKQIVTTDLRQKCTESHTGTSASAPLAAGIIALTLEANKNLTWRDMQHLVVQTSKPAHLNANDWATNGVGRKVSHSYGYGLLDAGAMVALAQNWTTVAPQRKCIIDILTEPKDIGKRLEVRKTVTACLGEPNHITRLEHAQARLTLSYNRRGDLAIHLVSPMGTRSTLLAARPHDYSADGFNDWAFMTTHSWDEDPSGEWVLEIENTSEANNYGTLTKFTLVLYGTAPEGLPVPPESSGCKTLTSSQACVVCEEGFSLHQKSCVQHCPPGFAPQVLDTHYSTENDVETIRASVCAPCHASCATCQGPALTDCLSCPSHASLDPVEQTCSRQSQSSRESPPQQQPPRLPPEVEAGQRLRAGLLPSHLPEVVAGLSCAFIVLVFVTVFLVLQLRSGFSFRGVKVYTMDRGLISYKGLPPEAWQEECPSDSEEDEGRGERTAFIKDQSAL
row,Structure (SMILES),Ki [nM]
1,CC(C)[C@H](NC(=O)[C@H](CCCNC(=N)N)NC(=O)[C@H](CCCCN)NC(=O)[C@H](C)NC(=O)[C@H](C)NC(=O)[C@H](CCCNC(=N)N)NC(=O)[C@H](CCCNC(=N)N)NC(=O)[C@H](CCC(=O)O)NC(=O)[C@H](CCCNC(=N)N)NC(=O)[C@@H]1CCCN1C(=O)[C@@H](N)[C@@H](C)O)C(N)=O (H-TPRERRAAKRV-NH2),> 100
2,C[C@H](N)C(=O)N1CCC[C@H]1C(=O)N[C@@H](CCCNC(=N)N)C(=O)N[C@@H](CCC(=O)O)C(=O)N[C@@H](CCCNC(=N)N)C(=O)N[C@@H](CCCNC(=N)N)C(=O)N[C@@H](CCCNC(=N)N)C(=O)N[C@@H](CCCCN)C(=O)N[C@@H](CCCCN)C(=O)N[C@@H](CCCNC(=N)N)C(N)=O (H-APRERRRKKR-NH2),> 100
3,CC(C)[C@H](NC(=O)[C@H](CCCNC(=N)N)NC(=O)[C@H](CCCCN)NC(=O)[C@H](CCCCN)NC(=O)[C@H](CCCNC(=N)N)NC(=O)[C@H](CCCNC(=N)N)NC(=O)[C@H](CCCNC(=N)N)NC(=O)[C@H](CCC(=O)O)NC(=O)[C@H](C)NC(=O)[C@H](C)NC(=O)[C@H](C)N)C(N)=O (H-AAAERRRKKRV-NH2),> 100
4,C[C@H](NC(=O)[C@H](C)NC(=O)[C@H](CCCNC(=N)N)NC(=O)[C@@H]1CCCN1C(=O)[C@@H](N)[C@@H](C)O)C(=O)N[C@@H](CCCNC(=N)N)C(=O)N[C@@H](CCCNC(=N)N)C(=O)N[C@@H](CCCCN)C(=O)N[C@@H](CCCCN)C(=O)N[C@@H](CCCNC(=N)N)C(=O)NCC(N)=O (H-TPRAARRKKRG-NH2),> 100
5,CC(C)[C@H](NC(=O)[C@H](CCCNC(=N)N)NC(=O)[C@H](CCCCN)NC(=O)[C@H](CCCCN)NC(=O)[C@H](CCCNC(=N)N)NC(=O)[C@H](CCCNC(=N)N)NC(=O)[C@H](CCCNC(=N)N)NC(=O)[C@H](CCC(=O)O)NC(=O)[C@H](C)NC(=O)[C@H](C)NC(=O)[C@@H](N)[C@@H](C)O)C(N)=O (H-TAAERRRKKRV-NH2),> 100
6,C[C@H](NC(=O)[C@H](C)NC(=O)[C@H](CCC(=O)O)NC(=O)[C@H](CCCNC(=N)N)NC(=O)[C@@H]1CCCN1C(=O)[C@@H](N)[C@@H](C)O)C(=O)N[C@@H](CCCNC(=N)N)C(=O)N[C@@H](CCCCN)C(=O)N[C@@H](CCCCN)C(=O)N[C@@H](CCCNC(=N)N)C(N)=O (H-TPREAARKKR-NH2),> 100
7,CC(C)[C@H](NC(=O)[C@H](CCCNC(=N)N)NC(=O)[C@H](C)NC(=O)[C@H](C)NC(=O)[C@H](CCCNC(=N)N)NC(=O)[C@H](CCCNC(=N)N)NC(=O)[C@H](CCCNC(=N)N)NC(=O)[C@H](CCC(=O)O)NC(=O)[C@H](CCCNC(=N)N)NC(=O)[C@@H]1CCCN1C(=O)[C@@H](N)[C@@H](C)O)C(N)=O (H-TPRERRRAARV-NH2),> 100
8,C[C@H](NC(=O)[C@H](C)NC(=O)[C@@H]1CCCN1C(=O)[C@@H](N)[C@@H](C)O)C(=O)N[C@@H](CCCNC(=N)N)C(=O)N[C@@H](CCCNC(=N)N)C(=O)N[C@@H](CCCNC(=N)N)C(=O)N[C@@H](CCCCN)C(=O)N[C@@H](CCCCN)C(=O)N[C@@H](CCCNC(=N)N)C(=O)NCC(N)=O (H-TPAARRRKKRG-NH2),> 100
9,C[C@H](NC(=O)[C@H](C)NC(=O)[C@H](CCCNC(=N)N)NC(=O)[C@H](CCC(=O)O)NC(=O)[C@H](CCCNC(=N)N)NC(=O)[C@@H]1CCCN1C(=O)[C@@H](N)[C@@H](C)O)C(=O)N[C@@H](CCCCN)C(=O)N[C@@H](CCCCN)C(=O)N[C@@H](CCCNC(=N)N)C(=O)N(C)CC(N)=O (H-TPRERAAKKR[Sar]-NH2),> 100
10,C[C@H](NC(=O)[C@H](CCCNC(=N)N)NC(=O)[C@@H]1CCCN1C(=O)[C@@H](N)[C@@H](C)O)C(=O)N[C@@H](CCCNC(=N)N)C(=O)N[C@@H](CCCNC(=N)N)C(=O)N[C@@H](CCCNC(=N)N)C(=O)N[C@@H](CCCCN)C(=O)N[C@@H](CCCCN)C(=O)N[C@@H](CCCNC(=N)N)C(=O)N(C)CC(N)=O,> 100
11,C[C@H](NC(=O)[C@H](C)NC(=O)[C@H](CCCNC(=N)N)NC(=O)[C@@H]1CCCN1C(=O)[C@@H](N)[C@@H](C)O)C(=O)N[C@@H](CCCNC(=N)N)C(=O)N[C@@H](CCCNC(=N)N)C(=O)N[C@@H](CCCCN)C(=O)N[C@@H](CCCCN)C(=O)N[C@@H](CCCNC(=N)N)C(=O)N(C)CC(N)=O (H-TPRAARRKKR[Sar]-NH2),> 100
12,C[C@H](NC(=O)[C@H](C)NC(=O)[C@H](CCC(=O)O)NC(=O)[C@H](CCCNC(=N)N)NC(=O)[C@@H]1CCCN1C(=O)[C@@H](N)[C@@H](C)O)C(=O)N[C@@H](CCCNC(=N)N)C(=O)N[C@@H](CCCCN)C(=O)N[C@@H](CCCCN)C(=O)N[C@@H](CCCNC(=N)N)C(=O)N(C)CC(N)=O (H-TPREAARKKR[Sar]-NH2),> 100
13,C[C@H](NC(=O)[C@@H]1CCCN1C(=O)[C@@H](N)[C@@H](C)O)C(=O)N[C@@H](CCC(=O)O)C(=O)N[C@@H](CCCNC(=N)N)C(=O)N[C@@H](CCCNC(=N)N)C(=O)N[C@@H](CCCNC(=N)N)C(=O)N[C@@H](CCCCN)C(=O)N[C@@H](CCCCN)C(=O)N[C@@H](CCCNC(=N)N)C(N)=O (H-TPAERRRKKR-NH2),> 100
14,CC(C)[C@H](NC(=O)[C@H](C)NC(=O)[C@H](CCCCN)NC(=O)[C@H](CCCCN)NC(=O)[C@H](CCCNC(=N)N)NC(=O)[C@H](CCCNC(=N)N)NC(=O)[C@H](CCCNC(=N)N)NC(=O)[C@H](CCC(=O)O)NC(=O)[C@H](CCCNC(=N)N)NC(=O)[C@@H]1CCCN1C(=O)[C@@H](N)[C@@H](C)O)C(N)=O (H-TPRERRRKKAV-NH2),> 100
15,C[C@H](NC(=O)[C@H](C)NC(=O)[C@@H](N)[C@@H](C)O)C(=O)N[C@@H](CCC(=O)O)C(=O)N[C@@H](CCCNC(=N)N)C(=O)N[C@@H](CCCNC(=N)N)C(=O)N[C@@H](CCCNC(=N)N)C(=O)N[C@@H](CCCCN)C(=O)N[C@@H](CCCCN)C(=O)N[C@@H](CCCNC(=N)N)C(=O)N(C)CC(N)=O (H-TAAERRRKKR[Sar]-NH2),> 100

# Same assay, conditions: furin, Pyr-RTKR-AMC substrate; optimization of the inhibitory peptides (Table 3); read-out: Ki
row,Structure (SMILES),Ki [nM]
1,C[C@H](NC(=O)[C@H](CCCNC(=N)N)NC(=O)[C@H](CCC(N)=O)NC(=O)[C@@H]1CCCN1C(=O)[C@@H](N)[C@@H](C)O)C(=O)N[C@@H](CCCNC(=N)N)C(=O)N[C@@H](CCCNC(=N)N)C(=O)N[C@@H](CCCNC(=N)N)C(=O)N[C@@H](CCCCN)C(=O)N[C@@H](CCCCN)C(=O)N[C@@H](CCCNC(=N)N)C(=O)N1CCC[C@H]1C(N)=O (H-TPQRARRRKKRP-NH2),> 100
2,C[C@H](NC(=O)[C@H](CCCNC(=N)N)NC(=O)[C@H](CCC(N)=O)NC(=O)[C@@H]1CCCN1C(=O)[C@@H](N)[C@@H](C)O)C(=O)N[C@@H](CCCNC(=N)N)C(=O)N[C@@H](CCCNC(=N)N)C(=O)N[C@@H](CCCNC(=N)N)C(=O)N[C@@H](CCCCN)C(=O)N[C@@H](CCCCN)C(=O)N[C@@H](CCCNC(=N)N)C(=O)N[C@@H](CCCNC(=N)N)C(N)=O (H-TPQRARRRKKRR-NH2),> 100
3,C[C@H](NC(=O)[C@H](CCCNC(=N)N)NC(=O)[C@H](CCC(N)=O)NC(=O)[C@@H]1CCCN1C(=O)[C@@H](N)[C@@H](C)O)C(=O)N[C@@H](CCCNC(=N)N)C(=O)N[C@@H](CCCNC(=N)N)C(=O)N[C@@H](CCCNC(=N)N)C(=O)N[C@@H](CCCCN)C(=O)N[C@@H](CCCCN)C(=O)N[C@@H](CCCNC(=N)N)C(=O)NCC(N)=O,> 100
4,C[C@H](NC(=O)[C@H](CCCNC(=N)N)NC(=O)[C@H](CCC(N)=O)NC(=O)[C@@H]1CCCN1C(=O)[C@@H](N)[C@@H](C)O)C(=O)N[C@@H](CCCNC(=N)N)C(=O)N[C@@H](CCCNC(=N)N)C(=O)N[C@@H](CCCNC(=N)N)C(=O)N[C@@H](CCCCN)C(=O)N[C@@H](CCCCN)C(=O)N[C@@H](CCCNC(=N)N)C(=O)N[C@@H](Cc1ccc(O)cc1)C(N)=O (H-TPQRARRRKKRY-NH2),47
5,C[C@@H](O)[C@H](N)C(=O)N1CCC[C@H]1C(=O)N[C@@H](CCC(N)=O)C(=O)N[C@@H](CCCNC(=N)N)C(=O)N[C@@H](Cc1ccc(O)cc1)C(=O)N[C@@H](CCCNC(=N)N)C(=O)N[C@@H](CCCNC(=N)N)C(=O)N[C@@H](CCCNC(=N)N)C(=O)N[C@@H](CCCCN)C(=O)N[C@@H](CCCCN)C(=O)N[C@@H](CCCNC(=N)N)C(=O)NCC(N)=O (H-TPQRYRRRKKRG-NH2),> 100
6,C[C@H](NC(=O)[C@H](CCCNC(=N)N)NC(=O)[C@H](CCC(N)=O)NC(=O)[C@@H]1CCCN1C(=O)[C@@H](N)[C@@H](C)O)C(=O)N[C@@H](CCCNC(=N)N)C(=O)N[C@@H](CCCNC(=N)N)C(=O)N[C@@H](CCCNC(=N)N)C(=O)N[C@@H](CCCCN)C(=O)N[C@@H](CCCCN)C(=O)N[C@H](CCCNC(=N)N)C(=O)NCC(N)=O,> 100
7,C[C@H](NC(=O)[C@H](CCCNC(=N)N)NC(=O)[C@H](CCC(N)=O)NC(=O)[C@@H]1CCCN1C(=O)[C@@H](N)[C@@H](C)O)C(=O)N[C@@H](CCCNC(=N)N)C(=O)N[C@@H](CCCNC(=N)N)C(=O)N[C@@H](CCCNC(=N)N)C(=O)N[C@@H](CCCCN)C(=O)N[C@@H](CCCCN)C(=O)N[C@@H](CCCNC(=N)N)C(=O)N[C@@H](CCC(=O)O)C(N)=O (H-TPQRARRRKKRE-NH2),103
8,C[C@H](NC(=O)[C@H](CCCNC(=N)N)NC(=O)[C@H](CCC(N)=O)NC(=O)[C@@H]1CCCN1C(=O)[C@@H](N)[C@@H](C)O)C(=O)N[C@@H](CCCNC(=N)N)C(=O)N[C@@H](CCCNC(=N)N)C(=O)N[C@@H](CCCNC(=N)N)C(=O)N[C@@H](CCCCN)C(=O)N[C@@H](CCCCN)C(=O)N[C@@H](CCCNC(=N)N)C(=O)N[C@@H](CC(N)=O)C(N)=O (H-TPQRARRRKKRN-NH2),> 100
9,C[C@H](NC(=O)[C@H](CCCNC(=N)N)NC(=O)[C@H](CCC(N)=O)NC(=O)[C@@H]1CCCN1C(=O)[C@@H](N)[C@@H](C)O)C(=O)N[C@@H](CCCNC(=N)N)C(=O)N[C@@H](CCCNC(=N)N)C(=O)N[C@@H](CCCNC(=N)N)C(=O)N[C@@H](CCCCN)C(=O)N[C@@H](CCCCN)C(=O)N[C@@H](CCCNC(=N)N)C(=O)N[C@@H](Cc1ccccc1)C(N)=O (H-TPQRARRRKKRF-NH2),44
10,C[C@@H](O)[C@H](N)C(=O)N1CCC[C@H]1C(=O)N[C@@H](CCC(N)=O)C(=O)N[C@@H](CCCNC(=N)N)C(=O)N[C@@H](Cc1c[nH]c2ccccc12)C(=O)N[C@@H](CCCNC(=N)N)C(=O)N[C@@H](CCCNC(=N)N)C(=O)N[C@@H](CCCNC(=N)N)C(=O)N[C@@H](CCCCN)C(=O)N[C@@H](CCCCN)C(=O)N[C@@H](CCCNC(=N)N)C(=O)NCC(N)=O (H-TPQRWRRRKKRG-NH2),> 100
